According to ChEMBL document CHEMBL1133765, “QSAR model for drug human oral bioavailability” (J Med Chem, 2000):

Key:
[1] = octanol/water
clinical [2] = conditions: human, in vivo, po
physchem [3] = conditions: octanol/water, pH 6.5
physchem [4] = assay: physchem
physchem [5] = conditions: octanol/water
[6] = octanol/water; remark: listed apart in the source
clinical [7] = conditions: human, in vivo, po; remark: listed apart in the source

Row | SMILES | delta logD [1] | bioavailability (clinical [2]) | logD (physchem [3]) | pKa (physchem [4]) | logD (physchem [5]; pH 6.5, logD) | delta logD [6] | bioavailability (clinical [7]; F) | logD (physchem [5]; pH 6.5) | bioavailability (clinical [7])
1 | CC(=O)Nc1ccc(O)cc1 [ACETAMINOPHEN] | 0 | 79% | 0.51 |  |  |  |  |  | 
2 | COCC(=O)O[C@]1(CCN(C)CCCc2nc3ccccc3[nH]2)CCc2cc(F)ccc2[C@@H]1C(C)C [MIBEFRADIL] | -0.9 | 79% | 1.25 | 9.3 |  |  |  |  | 
3 | Cc1nnc2n1-c1sc(Br)cc1C(c1ccccc1Cl)=NC2 [BROTIZOLAM] | -0.14 | 79% | 2.63 | 6.2 |  |  |  |  | 
4 | CC(C)(C)NC[C@H](O)COc1nsnc1N1CCOCC1 [TIMOLOL] | -0.9 | 79% | -0.99 | 9.3 |  |  |  |  | 
5 | CSc1ccc(C(=O)c2[nH]c(=O)[nH]c2C)cc1 [ENOXIMONE] | 0 | 79% | 2.32 |  |  |  |  |  | 
6 | CC(C)(C)NC[C@@H](O)COc1ccccc1C1CCCC1 | -0.9 | 79% | 1.35 | 9.3 |  |  |  |  | 
7 | Nc1nc2ccc(OC(F)(F)F)cc2s1 [RILUZOLE] |  | 79% |  | 6.5 |  |  |  |  | 
8 | C[C@H](CS)C(=O)N1C[C@@H](Sc2ccccc2)C[C@H]1C(=O)O [ZOFENOPRILAT] | 0.9 | 79% | -0.64 | 3.7 |  |  |  |  | 
9 | CCOC(=O)C1(c2ccccc2)CCN(C)CC1 [MEPERIDINE] | -0.88 | 79% | 0.25 |  |  |  |  |  | 
10 | CCc1cccc2cc(C(O)CNC(C)(C)C)oc12 (stereo not drawn) [BUFURALOL] | -0.89 | 79% | 1 | 9 |  |  |  |  | 
11 | CC(C)COCC(CN(Cc1ccccc1)c1ccccc1)N1CCCC1 (stereo not drawn) [BEPRIDIL] | -0.9 | 79% | 1.1 | 9.3 |  |  |  |  | 
12 | COc1ccc2[nH]c([S+]([O-])Cc3ncc(C)c(OC)c3C)nc2c1 (stereo not drawn) [OMEPRAZOLE] | -0.02 | 79% | 2.21 | 5.2 |  |  |  |  | 
13 | COc1ccccc1N1CCN(CCCNc2cc(=O)n(C)c(=O)n2C)CC1 | -0.52 | 79% | 0.9 | 7.1 |  |  |  |  | 
14 | CC(C)(C)NCC(O)COc1cccc2c1CCCC2=O (stereo not drawn) [BUNOLOL] | -0.9 | 79% | -0.4 | 9.3 |  |  |  |  | 
15 | COCCCC/C(=N\OCCN)c1ccc(C(F)(F)F)cc1 [FLUVOXAMINE] |  | 79% |  | 9.5 |  |  |  |  | 
16 | Fc1ccc([C@@H]2CCNC[C@H]2COc2ccc3c(c2)OCO3)cc1 [PAROXETINE] | -0.9 | 79% | -1.96 | 11.2 |  |  |  |  | 
17 | NS(=O)(=O)c1cc(C2(O)NC(=O)c3ccccc32)ccc1Cl (stereo not drawn) [CHLORTHALIDONE] | 0 | 79% | 0.22 |  |  |  |  |  | 
18 | CN/C(=N/CCSCc1nc[nH]c1C)NC#N [CIMETIDINE] |  | 79% | -0.08 |  |  |  |  |  | 
19 | CCN1CCC[C@H]1CNC(=O)c1c(O)c(Cl)cc(Cl)c1OC [RACLOPRIDE] |  | 79% |  | 9.2 |  |  |  |  | 
20 | CC(C)NCC(O)COc1cccc2[nH]ccc12 (stereo not drawn) [PINDOLOL] | -0.88 | 79% |  | 8.8 |  |  |  |  | 
21 | O=C1NC(=O)C(c2ccccc2)(c2ccccc2)N1 [PHENYTOIN] |  |  |  | 8 | 2.47 | 0.1 | > 80% |  | 
22 | CCNC(C)Cc1cccc(C(F)(F)F)c1 (stereo not drawn) [FENFLURAMINE] |  |  |  | 10 |  | -0.9 |  | 0.4 | 79%
23 | NCCc1ccc(O)c(O)c1 [DOPAMINE] |  |  |  | 8.9 | -3.37 | -0.9 | < 20% |  | 
24 | CN1CCN2c3ncccc3Cc3ccccc3C2C1 (stereo not drawn) [MIRTAZAPINE] |  |  |  | 7.1 | 2.01 | -0.55 | 79% |  | 
